In patent US8445510B2, “Fused bicyclic kinase inhibitors” (OSI Pharmaceuticals, LLC, priority 2011, dated 2013):
pIC50: −log10 of the molar value.

Legend:
Assay type in all cases: cell-based
RON = target: T1, RON (Homo sapiens, UniProt Q04912); assay: sfRON cell mechanistic assay (HeLa), phosphorylated RON ELISA; details: HeLa cells transfected with sfRON; inhibition of phosphorylated RON; four hours incubation; at least duplicate experiments; read-out: sfRON mech IC50
T1 sequence (Q04912 913-1400): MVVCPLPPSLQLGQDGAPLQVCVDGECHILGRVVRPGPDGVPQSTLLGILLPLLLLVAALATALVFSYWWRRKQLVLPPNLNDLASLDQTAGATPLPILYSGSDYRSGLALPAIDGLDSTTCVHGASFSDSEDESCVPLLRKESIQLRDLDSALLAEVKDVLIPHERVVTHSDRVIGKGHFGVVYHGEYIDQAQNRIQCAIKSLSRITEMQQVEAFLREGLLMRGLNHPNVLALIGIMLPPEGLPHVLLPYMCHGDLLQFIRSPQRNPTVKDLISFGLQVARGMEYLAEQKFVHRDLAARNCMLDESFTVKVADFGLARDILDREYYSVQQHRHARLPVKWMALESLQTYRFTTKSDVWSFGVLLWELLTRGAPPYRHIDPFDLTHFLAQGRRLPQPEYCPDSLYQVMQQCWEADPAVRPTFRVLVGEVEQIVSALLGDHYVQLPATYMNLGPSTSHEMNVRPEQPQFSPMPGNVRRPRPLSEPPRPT
Experimental: The cellular activity of the compounds of the present invention against RON may be determined by the following procedure. HeLa cells were plated in Falcon 3072 96-well plates in growth media (DMEM, 10% FBS, 1% L-glutamine) at a density of 10000 cells/well and incubated at 37° C., 5% CO2 overnight. The following day, cells were transfected with 0.2 μg sfRON-pcDNA plasmid DNA with 0.5 μL Lipofectamine-2000 per well in the presence of 50 μL OPTI-MEM, incubated at 37° C., 5% CO2 overnight. Costar 3915 96-well assay plates were coated with rabbit Anti-RON antibody at 2.0 μg/mL, sealed, and incubated overnight at 4° C. On the third day, coated plates were washed with PBS and blocked with 3% BSA. For the sfRON transfected cells, one-tenth volume of a 10× concentration of compounds was added to the wells in a 6-point dilution series. The dilution series was composed of an initial 1:5 dilution of a 10 mM DMSO stock solution of compound in DMSO, followed by a 1:10 dilution in growth media, for a final DMSO concentration on cells of 0.5%. Control wells were treated with 0.5% DMSO. The typical range of dilution was 10 μM to 3 nM. Once compound was added to the cells, plates were incubated for four hours at 37° C., 5% CO2. Plates were then washed in PBS, and lysed in triton-based lysis buffer. Lysates were transferred to the blocked capture plates. The phosphorylated RON levels were measured by incubating with a Goat polyclonal antibody against phosphorylated RON ([pYpY1238/1239]) followed by an anti-Goat antibody conjugated to HRP. Signal was measured on a Wallac Victor plate reader with luminance. The DMSO signal of the control wells was defined as 100% and the percent of inhibition of phosphorylated RON was expressed as percent of control. IC50 values were determined from the percent of control data using a standard four-parameter model.
The IC50 values of exemplary compounds of the present invention determined in a sfRON cell mechanistic assay using the HeLa cell line according to the procedures described herein in at least duplicate experiments are abbreviated as follows and are shown in Table 3: A, IC50≦0.2 μM; B, 0.2 μM<IC50≦1.0 μM; C, IC50>1 μM; ND, not determined. The Example # of Table 3 corresponds to the compound example number as illustrated in the Examples section.

Karpas-299 cells = assay: Karpas-299 cell proliferation assay (CellTiter-Glo); details: Homo sapiens, 72 h; Karpas-299 cell line (NPM-ALK); 3 days incubation; at least duplicate experiments; read-out: Prolif. IC50
Experimental: The effect of inhibitors on the proliferation of Karpas-299 cells (DSMZ no. ACC 31) was determined using the following protocol. Karpas-299 cells were plated in 96-well white tissue culture treated plates (Corning 3917) in growth medium (RPMI, 10% FCS) at a density of 5000 cells/well in a total volume of 135 μL and incubated at 37° C., 5% CO2, 95% humidity overnight. The following day, one-tenth volume of a 10× concentration of compounds was added to the wells in an 8-point dilution series. Compounds were serially diluted (1:4) in DMSO from a 10 mM stock solution prior to dilution in growth media to the 10× working concentrations (5% DMSO). Final concentration of DMSO in compound-treated wells was 0.5%. Control wells containing growth media or growth media/0.5% DMSO were included in all test plates. […] Once the compounds were added to the cells, plates were incubated for 3 days at 37° C., 5% CO2 at 95% humidity. After 72 hours, all cells and reagents were equilibrated to room temperature and 15 μL of CellTiter-Glo reagent (Promega # G7573) was added to each well. Plates were shaken on a platform for 10 minutes at room temperature prior to reading luminescence. The value of the signal of the control wells was set as 100% growth and growth inhibition was expressed as percent of control. IC50 values were determined from the percent of control data using a standard four-parameter curve fit equation.
(§1) The IC50 values of exemplary compounds of the present invention determined in a cell proliferation assay using the Karpas-299 cell line according to the procedures described herein in at least duplicate experiments are abbreviated as follows and are shown in Table 5: A, IC50≦0.05 μM; B, 0.05 μM<IC50≦0.2 μM; C, 0.2 μM<IC50≦1 μM; D, IC50>1 μM; ND, not determined. The Example # of Table 5 corresponds to the compound example number as illustrated in the Examples section.
The Karpas-299 cell line has a t(2; 5) chromosomal translocation and expresses the NPM-ALK fusion protein, resulting in constitutively active ALK. […] Ther. 6(12):3314-22 (2007)]. With this “ALK-driven” cell line, the cell proliferation IC50 values can thus be used as surrogate for the p-ALK cell mechanistic IC50 values.

MKN45 cells = assay: MKN45 cell proliferation assay (CellTiter-Glo); details: Homo sapiens, MKN-45, 72 h; MKN45 cell line; 3 days incubation; at least duplicate experiments; read-out: Prolif. IC50
Experimental: The effect of inhibitors on the proliferation of MKN45 cells was determined using the following protocol. MKN45 cells were plated in Corning 3917 96-well white tissue culture treated plates in growth medium (RPMI, 10% FCS) at a density of 5000 cells/well in a total volume of 135 μL and incubated at 37° C., 5% CO2, 95% humidity overnight. The following day, one-tenth volume of a 10× concentration of compounds was added to the wells in an 8-point dilution series. The dilution series was composed of an initial 1:5 dilution of a 10 mM stock of compound in DMSO, followed by serial 1:4 dilutions in DMSO, then a 1:20 dilution in growth medium prior to the 1:10 dilution into the cell plate. […] The typical dilution range is 10 μM to 0.6 nM. Once the compound was added to the cells, plates were incubated for 3 days at 37° C., 5% CO2 at 95% humidity. On the third day, after allowing all cells and reagents to come to room temperature, 25 μL of CellTiter-Glo reagent (Promega #G7573) was added to the wells. Plates were shaken on a platform for 10 minutes prior to reading luminescence for 0.1 seconds. The signal of the control wells was taken as 100% growth and growth inhibition was expressed as percent of control. IC50 values were determined from the percent of control data using a standard four-parameter model.
as §1, with “the MKN45” for “the Karpas-299”, “Table 2:” for “Table 5:”, “Table 2” for “Table 5”
Treatment of this cell line with a selective c-MET inhibitor led to induction of apoptosis and inhibition of proliferation, whereas non-MET-amplified cell lines were not affected [Smolen et al., Proc. Natl. Acad. Sci. USA, 103(7):2316-2321 (2006)]. This cell line is thus “driven” by c-MET, and antiproliferative effects correlate very well with the inhibition of c-MET phosphorylation so that the cell proliferation IC50, values can be used as surrogate for the c-MET cell mechanistic IC50, values. Under the assay conditions described herein, the IC50 values correlate nearly 1:1.

| SMILES | pIC50 (RON) | pIC50 (Karpas-299 cells) | pIC50 (MKN45 cells) |
| --- | --- | --- | --- |
| COc1ccc(F)c(Cl)c1[C@@H](C)c1c[nH]c2ncc(-c3cnn([C@H]4CC[C@@H](N5CCN(C(C)=O)CC5)CC4)c3C)cc12 [Example 57, 1-{4-[cis-4-(4-{3-[(1S)-1-(2-Chloro-3-fluoro-6-methoxyphenyl)ethyl]-1H-pyrrolo[2,3-b]pyridin-5-yl}-5-methyl-1H-pyrazol-1-yl)cyclohexyl]piperazin-1-yl}ethanone] | < 6.00 | 6.70 to 7.30 | ≥ 7.30 |
| COc1ccc(F)c(Cl)c1[C@@H](C)c1c[nH]c2ncc(-c3cnn([C@H]4CC[C@H](N)CC4)c3C)cc12 [Example 58, trans-4-(4-{3-[(1S)-1-(2-Chloro-3-fluoro-6-methoxyphenyl)ethyl]-1H-pyrrolo[2,3-b]pyridin-5-yl}-5-methyl-1H-pyrazol-1-yl)cyclohexanamine] | 6.00 to 6.70 | ≥ 7.30 | ≥ 7.30 |
| Cc1c(-c2cnc3[nH]cc([C@H](C)c4c(OC(F)F)ccc(F)c4Cl)c3c2)cnn1[C@H]1CC[C@@H](O)CC1 [Example 86, cis-4-[4-(3-{(1S)-1-[2-Chloro-6-(difluoromethoxy)-3-fluorophenyl]ethyl}-1H-pyrrolo[2,3-b]pyridin-5-yl)-5-methyl-1H-pyrazol-1-yl]cyclohexanol] | 6.00 to 6.70 | ≥ 7.30 | ≥ 7.30 |
| Cc1c(-c2cnc3[nH]cc([C@H](C)c4c(OC(F)F)ccc(F)c4Cl)c3c2)cnn1C[C@@H](O)CO [Example 87, (2R)-3-[4-(3-{(1S)-1-[2-Chloro-6-(difluoromethoxy)-3-fluorophenyl]ethyl}-1H-pyrrolo[2,3-b]pyridin-5-yl)-5-methyl-1H-pyrazol-1-yl]propane-1,2-diol] | ≥ 6.70 | ≥ 7.30 | ≥ 7.30 |
| Cc1c(-c2cnc3[nH]cc([C@H](C)c4c(OC(F)F)ccc(F)c4Cl)c3c2)cnn1C1CCC(=O)CC1 [Example 88, 4-[4-(3-{(1S)-1-[2-Chloro-6-(difluoromethoxy)-3-fluorophenyl]ethyl}-1H-pyrrolo[2,3-b]pyridin-5-yl)-5-methyl-1H-pyrazol-1-yl]cyclohexanone] | 6.00 to 6.70 | ≥ 7.30 | ≥ 7.30 |
| Cc1c(-c2cnc3[nH]cc([C@H](C)c4c(OC(F)F)ccc(F)c4Cl)c3c2)cnn1[C@H]1CC[C@H](N(C)CC(=O)O)CC1 [Example 89, N-{trans-4-[4-(3-{(1S)-1-[2-Chloro-6-(difluoromethoxy)-3-fluorophenyl]ethyl}-1H-pyrrolo[2,3-b]pyridin-5-yl)-5-methyl-1H-pyrazol-1-yl]cyclohexyl}-N-methylglycine] | < 6.00 | 6.70 to 7.30 | ≥ 7.30 |
| Cc1c(-c2cnc3[nH]cc([C@H](C)c4c(OC(F)F)ccc(F)c4Cl)c3c2)cnn1[C@H]1CC[C@@H](N(C)CC(=O)O)CC1 [Example 90, N-{cis-4-[4-(3-{(1S)-1-[2-Chloro-6-(difluoromethoxy)-3-fluorophenyl]ethyl}-1H-pyrrolo[2,3-b]pyridin-5-yl)-5-methyl-1H-pyrazol-1-yl]cyclohexyl}-N-methylglycine] | < 6.00 | 6.70 to 7.30 | 6.70 to 7.30 |
| Cc1c(-c2cnc3[nH]cc([C@H](C)c4c(OC(F)F)ccc(F)c4Cl)c3c2)cnn1[C@H]1CC[C@H](N2CCC[C@H]2C(=O)O)CC1 [Example 91, 1-{trans-4-[4-(3-{(1S)-1-[2-Chloro-6-(difluoromethoxy)-3-fluorophenyl]ethyl}-1H-pyrrolo[2,3-b]pyridin-5-yl)-5-methyl-1H-pyrazol-1-yl]cyclohexyl}-L-proline] | < 6.00 | 6.70 to 7.30 | 6.70 to 7.30 |
| Cc1c(-c2cnc3[nH]cc([C@H](C)c4c(OC(F)F)ccc(F)c4Cl)c3c2)cnn1[C@H]1CC[C@@H](N2CCC[C@H]2C(=O)O)CC1 [Example 92, 1-{cis-4-[4-(3-{(1S)-1-[2-Chloro-6-(difluoromethoxy)-3-fluorophenyl]ethyl}-1H-pyrrolo[2,3-b]pyridin-5-yl)-5-methyl-1H-pyrazol-1-yl]cyclohexyl}-L-proline] | < 6.00 | 6.00 to 6.70 | 6.00 to 6.70 |
